In patent US7442713B2, “2-thio-substituted imidazole derivatives and their use in pharmaceutics” (Merckle GmbH, priority 2002, dated 2008):
Where two headings read alike, the source gives them in different places.

Columns and labels:
activated p38α = activated p38α (Homo sapiens, UniProt Q16539); assay: Kinase assay (p38α, ATF2 substrate, ELISA read-out); assay type: biochemical
Description: At 37° C., microtiter plates were coated with 50 μl of ATF2 solution ([…]) for one hour. The plates were washed three times with water, and 50 μl of kinase mixture (50 mM tris-HCl, 10 mM MgCl2, 10 mM β-glycerol phosphate, 10 μg/ml BSA, 1 mM DTT, 100 μM ATP, 100 μM Na3VO4, 10 ng of activated p38α) with or without inhibitor were then added into the wells, and the plates were incubated at 37° C. for 1 hour. The plates were washed three times and then incubated at 37° C. with phosphorus-ATF-2 antibodies for one hour. Once more, the plates were washed three times, and goat-anti-rabbit IgG labeled with alkaline phosphatase was then added at 37° C. for one hour (to immobilize antibody-phosphorylated protein-substrate complex). After washing three times, the alkaline phosphatase-substrate solution (3 mM 4-NPP, 50 mM NaHCO3, 50 mM MgCl2, 100 μl/well) was added at 37° C. for 1.5 hours. The formation of 4-nitrophenolate was measured at 405 nm using a microtiter plate reader. The IC50 values were calculated.

IL-1β = assay: In vitro test of cytokine release, LPS-stimulated human whole blood / PBMCs: IL-1β; assay type: cell-based; conditions: PBMC, LPS stimulation, ELISA, read-out: Cytokines IC50 IL-1β
Description: The compounds or compositions according to the invention can be administered to mammals (man or animal) in a dose of from about 0.5 mg to 100 mg per kg of body weight per day. They may be administered in one individual dose or in a plurality of doses. The activity spectrum of the compounds as inhibitors of cytokine release was examined using the test systems below, as described by C. Donat and S. Laufer in Arch. Pharm. Pharm. Med. Chem. 333, Suppl. 1, 1-40, 2000.
In vitro Test with Human Whole Blood
The test substance is added to samples of human potassium-EDTA whole blood (of 400 μl each) and the samples are preincubated in a CO2 incubator (5% CO2; 95% moisture-saturated air) at 37° C. for 15 min. The samples are then stimulated with 1 μg/ml of LPS (E. coli 026:B6) at 37° C. in a CO2 incubator (5% CO2; 95% moisture-saturated air) for 4 hours. The reaction is stopped by placing the samples on ice, adding DPBS buffer and then centrifuging at 1000*g for 15 min. The amount of IL-1β and TNFα in the plasma supernatant is then determined by ELISA.
1) The mononuclear cells (PBMCs) from human potassium-EDTA whole blood, diluted 1:3, are isolated by density gradient centrifugation (Histopaque®-1.077). The cells are washed twice with DPBS buffer, resuspended in macrophage SFM medium and adjusted to a cell count of 1*10^6 cells/ml.
The resulting PBMCs suspension (samples of in each case 390 μl) and the test substance are preincubated at 37° C. in a CO2 incubator (5% CO2; 95% moisture-saturated air) for 15 min. The samples are then stimulated with in each case […] of LPS (E. coli 026:B6) at 37° C. in a CO2 incubator (5% CO2; 95% moisture-saturated air) for 4 hours. The reaction is stopped by placing the samples on ice, adding DPBS buffer and then centrifuging at 15 880*g for 12 min. The amount of IL-1β and TNFα in the plasma supernatant is then determined by ELISA.

[1] = Table 1, 100 μM ATP, 10 ng activated p38α, read-out: Kinase assay IC50

Sequence of activated p38α (Q16539 whole entry): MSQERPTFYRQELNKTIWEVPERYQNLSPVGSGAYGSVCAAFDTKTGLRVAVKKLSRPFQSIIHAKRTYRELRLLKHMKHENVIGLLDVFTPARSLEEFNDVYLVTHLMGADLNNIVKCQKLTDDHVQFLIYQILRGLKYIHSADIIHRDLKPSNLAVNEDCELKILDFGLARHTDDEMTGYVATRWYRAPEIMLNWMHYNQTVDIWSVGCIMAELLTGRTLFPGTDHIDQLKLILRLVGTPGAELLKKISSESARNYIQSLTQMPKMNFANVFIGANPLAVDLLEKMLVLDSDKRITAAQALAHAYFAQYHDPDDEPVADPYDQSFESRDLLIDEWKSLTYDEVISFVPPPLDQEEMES

Cn1c(SCC(=O)NC(CO)(CO)CO)nc(-c2ccc(F)cc2)c1-c1ccncc1 [Example 40, 2-[4-(4-Fluorophenyl)-1-methyl-5-pyridin-4-yl-1H-imidazol-2-ylsulfanyl]-N-(2-hydroxy-1,1-bishydroxymethylethyl)acetamide]
IC50 (activated p38α; [1]): 800 nM

Cn1c(SCC(=O)N2CCCCC2)nc(-c2ccc(F)cc2)c1-c1ccncc1 [Example 33, 2-[4-(4-Fluorophenyl)-1-methyl-5-pyridin-4-yl-1H-imidazol-2-ylsulfanyl]-1-piperidin-1-ylethanone]
IC50 (activated p38α; [1]): 75000 nM

Cn1c(SCC(=O)N(CCO)CCO)nc(-c2ccc(F)cc2)c1-c1ccncc1 [Example 41, 2-[4-(4-Fluorophenyl)-1-methyl-5-pyridin-4-yl-1H-imidazol-2-ylsulfanyl]-N,N-bis(2-hydroxyethyl)acetamide]
IC50 (activated p38α; [1]): 410 nM

Cn1c(SCCC(=O)N(CCO)CCO)nc(-c2ccc(F)cc2)c1-c1ccncc1 [Example 44, 3-[4-(4-Fluorophenyl)-1-methyl-5-pyridin-4-yl-1H-imidazol-2-ylsulfanyl]-N,N-bis(2-hydroxyethyl)propionamide]
IC50 (activated p38α; [1]): 30000 nM

Cn1c(SCC(=O)O)nc(-c2ccc(F)cc2)c1-c1ccncc1 [Example 36, 2-[4-(4-Fluorophenyl)-1-methyl-5-pyridin-4-yl-1H-imidazol-2-ylsulfanyl]acetic acid]
IC50 (activated p38α; [1]): 1600 nM

CCOC(=O)CCSc1nc(-c2ccc(F)cc2)c(-c2ccnc(NC(C)=O)c2)n1C [Example 70, Ethyl 3-[5-(2-acetylaminopyridin-4-yl)-4-(4-fluorophenyl)-1-methyl-1H-imidazol-2-ylsulfanyl]propionate]
inhibition at 1 µM (activated p38α; Table 2): 83% | IC50 (activated p38α; Table 2, read-out: p38α IC50): 530 nM

Cn1c(SCCN)nc(-c2ccc(F)cc2)c1-c1ccncc1 [Example 59, 2-[4-(4-Fluorophenyl)-1-methyl-5-pyridin-4-yl-1H-imidazol-2-ylsulfanyl]ethylamine]
IC50 (activated p38α; [1]): 1800 nM

CCOC(=O)C(=O)CSc1nc(-c2ccc(F)cc2)c(-c2ccncc2)n1C [Example 45, Ethyl 3-[4-(4-fluorophenyl)-1-methyl-5-pyridin-4-yl-1H-imidazol-2-ylsulfanyl]-2-oxopropionate]
IC50 (activated p38α; [1]): 7000 nM

CC(=O)Nc1cc(-c2c(-c3ccc(F)cc3)nc(SCC(=O)N(CCO)CCO)n2C)ccn1 [Example 69, 2-[5-(2-Acetylaminopyridin-4-yl)-4-(4-fluorophenyl)-1-methyl-1H-imidazol-2-ylsulfanyl]-N,N-bis(2-hydroxyethyl)acetamide]
inhibition at 1 µM (activated p38α; Table 2): 90% | IC50 (activated p38α; Table 2, read-out: p38α IC50): 250 nM

Cn1c(SCCC(=O)NC(CO)(CO)CO)nc(-c2ccc(F)cc2)c1-c1ccncc1 [Example 43, 3-[4-(4-Fluorophenyl)-1-methyl-5-pyridin-4-yl-1H-imidazol-2-ylsulfanyl]-N-(2-hydroxy-1,1-bishydroxymethylethyl)propionamide]
IC50 (activated p38α; [1]): 12000 nM

Cn1c(SCCN2C(=O)c3ccccc3C2=O)nc(-c2ccc(F)cc2)c1-c1ccncc1 [Example 48, 2-{2-[4-(4-Fluorophenyl)-1-methyl-5-pyridin-4-yl-1H-imidazol-2-ylsulfanyl]ethyl}isoindole-1,3-dione]
Kinase assay % at 10^−6 mol/l (activated p38α; Table 1): 30.9% at 10^−6 mol/l

CCOC(=O)CC(=O)CSc1nc(-c2ccc(F)cc2)c(-c2ccncc2)n1C [Example 30, Ethyl 4-[4-(4-fluorophenyl)-1-methyl-5-pyridin-4-yl-1H-imidazol-2-ylsulfanyl]-3-oxobutanoate]
IC50 (activated p38α; [1]): 4800 nM

CCOC(=O)C(Sc1nc(-c2ccc(F)cc2)c(-c2ccncc2)n1C)C(C)=O (centres unmarked) [Example 29, Ethyl 2-[4-(4-fluorophenyl)-1-methyl-5-pyridin-4-yl-1H-imidazol-2-ylsulfanyl]-3-oxobutanoate]
Kinase assay % at 10^−5 mol/l (activated p38α; Table 1): 13.8% at10^−5 mol/l

Cn1c(SCCC(=O)O)nc(-c2ccc(F)cc2)c1-c1ccncc1 [Example 37, 3-[4-(4-Fluorophenyl)-1-methyl-5-pyridin-4-yl-1H-imidazol-2-ylsulfanyl]propionic acid]
IC50 (activated p38α; [1]): 2000 nM

Cn1c(SCCC(=O)O)nc(-c2ccc(F)cc2)c1-c1ccnc(N)c1 [Example 72, 3-[5-(2-Aminopyridin-4-yl)-4-(4-fluorophenyl)-1-methyl-1H-imidazol-2-ylsulfanyl]propionic acid]
inhibition at 1 µM (activated p38α; Table 2): 64%

Cn1c(SCC(O)CO)nc(-c2ccc(F)cc2)c1-c1ccncc1 (centres unmarked) [Example 57, 3-[4-(4-Fluorophenyl)-1-methyl-5-pyridin-4-yl-1H-imidazol-2-yl-sulfanyl]propan-1,2-diol]
IC50 (activated p38α; Table 2, read-out: p38α IC50): 3600 nM

Cn1c(SCC(=O)N(CCO)CCO)nc(-c2ccc(F)cc2)c1-c1ccnc(N)c1 [Example 71, 2-[5-(2-Aminopyridin-4-yl)-4-(4-fluorophenyl)-1-methyl-1H-imidazol-2-ylsulfanyl]-N,N-bis(2-hydroxyethyl)acetamide]
inhibition at 1 µM (activated p38α; Table 2): 76% | IC50 (activated p38α; Table 2, read-out: p38α IC50): 900 nM

Cn1c(SCC(=O)NCC(O)CO)nc(-c2ccc(F)cc2)c1-c1ccncc1 (centres unmarked) [Example 42, N-(2,3-Dihydroxypropyl)-2-[4-(4-fluorophenyl)-1-methyl-5-pyridin-4-yl-1H-imidazol-2-ylsulfanyl]acetamide]
Kinase assay % at 10^−4 mol/l (activated p38α; Table 1, at 10^−4 mol/l): 90.4% at10^−4 mol/l

Cn1c(SCC(=O)N2CCOCC2)nc(-c2ccc(F)cc2)c1-c1ccncc1 [Example 32, 2-[4-(4-Fluorophenyl)-1-methyl-5-pyridin-4-yl-1H-imidazol-2-ylsulfanyl]-1-morpholin-4-ylethanone]
IC50 (activated p38α; [1]): 90000 nM

Cn1c(SCCCC(=O)O)nc(-c2ccc(F)cc2)c1-c1ccncc1 [Example 39, 4-[4-(4-Fluorophenyl)-1-methyl-5-pyridin-4-yl-1H-imidazol-2-ylsulfanyl]butanoic acid]
IC50 (activated p38α; [1]): 5000 nM

CC(=O)Nc1cc(-c2c(-c3ccc(F)cc3)nc(SCC(O)CO)n2C)ccn1 (centres unmarked) [Example 67, N-{4-[2-(2,3-dihydroxypropanesulfanyl)-5-(4-fluorophenyl)-3-methyl-3H-imidazol-4-yl]pyridin-2-yl}acetamide]
inhibition at 1 µM (activated p38α; Table 2): 77% | IC50 (activated p38α; Table 2, read-out: p38α IC50): 430 nM

CC(=O)CC(=O)CSc1nc(-c2ccc(F)cc2)c(-c2ccncc2)n1C [Example 38, 1-[4-(4-Fluorophenyl)-1-methyl-5-pyridin-4-yl-1H-imidazol-2-ylsulfanyl]pentane-2,4-dione]
Kinase assay % at 10^−6 mol/l (activated p38α; Table 1): 12.22% at10^−6 mol/l

CC(=O)C(Sc1nc(-c2ccc(F)cc2)c(-c2ccncc2)n1C)C(C)=O [Example 28, 3-[4-(4-Fluorophenyl)-1-methyl-5-pyridin-4-yl-1H-imidazol-2-ylsulfanyl]pentane-2,4-dione]
IC50 (activated p38α; [1]): 9500 nM

COC(=O)/C=C/CSc1nc(-c2ccc(F)cc2)c(-c2ccncc2)n1C [Example 31, Methyl 4-[4-(4-fluorophenyl)-1-methyl-5-pyridin-4-yl-1H-imidazol-2-ylsulfanyl]but-2-enoate]
IC50 (activated p38α; [1]): 42000 nM

Cn1c(SCCCN)nc(-c2ccc(F)cc2)c1-c1ccncc1 [Example 60]
IC50 (activated p38α; [1]): 1400 nM

Cn1c(SCCCN2C(=O)c3ccccc3C2=O)nc(-c2ccc(F)cc2)c1-c1ccncc1 [Example 49, 2-{3-[4-(4-Fluorophenyl)-1-methyl-5-pyridin-4-yl-1H-imidazol-2-ylsulfanyl]propyl}isoindole-1,3-dione]
IC50 (activated p38α; [1]): 2400 nM

O=C1c2ccccc2C(=O)N1CCCSc1nc(-c2ccc(F)cc2)c(-c2ccncc2)[nH]1 [Example 25d, 5-(4-Fluorophenyl)-4-(4-pyridinyl)imidazole-2-thio-3-propyl-N-phthalimide]
IC50 (activated p38α; [1]): 5500 nM | IC50 (IL-1β): 920 nM

Cn1c(SCCCCl)nc(-c2ccc(F)cc2)c1-c1ccncc1 [Example 47, 4-[2-(3-Chloropropylsulfanyl)-5-(4-fluorophenyl)-3-methyl-3H-imidazol-4-yl]pyridine]
IC50 (activated p38α; [1]): 3400 nM

CC(=O)CSc1nc(-c2ccc(F)cc2)c(-c2ccncc2)n1C [Example 26, 1-[4-(4-Fluorophenyl)-1-methyl-5-pyridin-4-yl-1H-imidazol-2-ylsulfanyl]propan-2-one]
Kinase assay % at 10^−5 mol/l (activated p38α; Table 1): 37.0% at10^−5 mol/l | IC50 (IL-1β): 83 nM
